Values of other authors, collected in patent publication US20240245703A1, “TOPICAL APPLICATION OF AGENTS TO REDUCE SUN SENSITIVITY AND IMPROVE TOPICAL PHOTODYNAMIC THERAPY” (Wright State University, priority 2021, published 2024).

Tested on: aSMase
Conditions: 10 micromolar, PC12 cells, incubation time 0.5 h; % of corresponding control values; cited from earlier work

Row | Structure (SMILES) | Residual ASM Activity [%]
1 | Clc1ccccc1CNCC1CCC(CNCc2ccccc2Cl)CC1 (centres unmarked) [AY9944, N-[(2-chlorophenyl)methyl]-1-[4-[[(2-chlorophenyl)methylamino]methyl]cyclohexyl]methanamine] | 22.1
2 | CN1[C@@H]2CC[C@H]1C[C@@H](OC(c1ccccc1)c1ccccc1)C2 [Benztropine] | 12.7
3 | CCN(CC)CCOc1ccc(C(=C(Cl)c2ccccc2)c2ccccc2)cc1 [Clomiphene] | 13.0
4 | CN(C)CCCN1c2ccccc2CCc2ccc(Cl)cc21 [Clomipramine] | 21.8
5 | CN(C)CCC=C1c2ccccc2C=Cc2ccccc21 [Cyclobenzaprine] | 26.2
6 | CC(NCCC(c1ccccc1)c1ccccc1)c1ccccc1 (centres unmarked) [Fendiline] | 25.2
7 | CNCCC(Oc1ccc(C(F)(F)F)cc1)c1ccccc1 (centres unmarked) [Fluoxetine] | 13.0
8 | OCCN1CCN(CC/C=C2/c3ccccc3Sc3ccc(C(F)(F)F)cc32)CC1 [Flupenthixol] | 18.2
9 | CNCCCC12CCC(c3ccccc31)c1ccccc12 [Maprotiline] | 13.5
10 | NCCC(Oc1ccc(C(F)(F)F)cc1)c1ccccc1 (centres unmarked) [Norfluoxetine] | 22.5
11 | Fc1ccc([C@@H]2CCNC[C@H]2COc2ccc3c(c2)OCO3)cc1 [Paroxetine] | 31.7
12 | C1CCC(C(CC2CCCCN2)C2CCCCC2)CC1 (centres unmarked) [Perhexiline] | 8.5

Same assay, conditions: 10 micromolar, PC12 cells, incubation time 6 h; % of corresponding control values; cited from earlier work

Row | Structure (SMILES) | Residual ASM Activity [%]
13 | CCN(CC)CCCN(c1ccccc1)C1Cc2ccccc2C1 [Aprindine] | 27.5
14 | COc1ccc(CCN2CCC(Nc3nc4ccccc4n3Cc3ccc(F)cc3)CC2)cc1 [Astemizole] | 14.3
15 | COCC(=O)O[C@]1(CCN(C)CCCc2nc3ccccc3[nH]2)CCc2cc(F)ccc2[C@@H]1C(C)C [Mibefradil] | 20.8
16 | OC1(c2ccc(Cl)c(C(F)(F)F)c2)CCN(CCCC(c2ccc(F)cc2)c2ccc(F)cc2)CC1 [Penfluridol] | 22.0

Same assay, conditions: 10 micromolar, PC12 cells, incubation time 24 h; % of corresponding control values; cited from earlier work

Row | Structure (SMILES) | Residual ASM Activity [%]
17 | CCN(CCCc1ccccc1)CCCc1ccccc1 [Alverine] | 21.7
18 | CCCCc1oc2ccccc2c1C(=O)c1cc(I)c(OCCN(CC)CC)c(I)c1 [Amiodarone] | 14.5
19 | CC(C)COCC(CN(Cc1ccccc1)c1ccccc1)N1CCCC1 (centres unmarked) [Bepridil] | 27.1
20 | OC(CCN1CCCCC1)(c1ccccc1)C1CC2C=CC1C2 (centres unmarked) [Biperidene] | 26.2
21 | CCN(CC)CCNC(C(=O)OCCC(C)C)c1ccccc1 (centres unmarked) [Camylofin] | 21.7
22 | COc1ccccc1OCCNCC(O)COc1cccc2[nH]c3ccccc3c12 (centres unmarked) [Carvedilol] | 22.4
23 | Clc1ccc(C(OCCN2CCCCC2)c2ccccc2)cc1 (centres unmarked) [Cloperastine] | 26.7
24 | C[C@H]1[C@H]2CC[C@H]3[C@@H]4CC=C5C[C@@H](N(C)C)CC[C@]5(C)[C@H]4CC[C@]23CN1C [Conessine] | 20.8
25 | CCN(CC)CCOC(=O)C(c1ccccc1)C1CCCCC1 (centres unmarked) [Drofenine] | 20.8
26 | CC[C@H]1CN2CCc3cc(OC)c(OC)cc3[C@@H]2C[C@@H]1C[C@H]1NCCc2cc(OC)c(OC)cc21 [Emetine] | 0.4
27 | CN(CCCN1c2ccccc2CCc2ccccc21)CC(=O)c1ccc(Cl)cc1 [Lofepramine] | 19.2
28 | CN(C)C(=O)C(CCN1CCC(O)(c2ccc(Cl)cc2)CC1)(c1ccccc1)c1ccccc1 [Loperamide] | 24.4
29 | CCN(CCCCOC(=O)c1ccc(OC)c(OC)c1)C(C)Cc1ccc(OC)cc1 (centres unmarked) [Mebeverine] | 31.8

Same assay, conditions: 10 micromolar, PC12 cells, incubation time 48 h; % of corresponding control values; cited from earlier work

Row | Structure (SMILES) | Residual ASM Activity [%]
30 | CN(Cc1cc(Br)cc(Br)c1N)C1CCCCC1 [Bromhexine] | 102.8
31 | CC(C)/N=c1\cc2n(-c3ccc(Cl)cc3)c3ccccc3nc-2cc1Nc1ccc(Cl)cc1 [Clofazimine] | 23.7
32 | Fc1ccc(C(c2ccc(F)cc2)N2CCN(C/C=C/c3ccccc3)CC2)cc1 [Flunarizine] | 32.7
